Data taken from US5059602A, “4-substituted dihydropyrido(4,3-d)pyrimidines as analgesics and topical antiinflammatory agents for the treatment of skin disorders” (Hoechst-Roussel Pharmaceuticals Inc., priority 1990, dated 1991).
Counter-ions that a name gives are not always drawn. Like-named read-outs stand apart in the source and are kept apart here.

What was measured:
[1] = test system: ear edema induced by topical application of TPA (phorbol 12-myristate acetate); experiment: TPA-Induced Ear Edema (TPAEE); format: in vivo, Female Swiss Webster mice; settings: for change in vivo at 10 µg/ear: 5 h, read-out: TPAEE
Method: TPA-Induced Ear Edema (TPAEE)
The purpose of this assay was to determine the ability of a topically-applied compound to prevent ear edema induced by topical application of TPA (phorbol 12-myristate acetate). Female Swiss Webster mice topically received TPA (10 μg/ear) on the right ear and vehicle on the left ear. The test compound (10 μg/ear) was applied to both ears. After five hours, the animals were sacrificed and an ear punch (4 mm) was taken from each ear. The difference in right and left ear punch weights for each animal was determined to assess activity. […] See Young, J. M. et al., J. Invest. Dermatol., 80 (1983), pp. 48-52.

[2] = test system: 2-phenyl-1,4-benzoquinone-induced writhing; experiment: 2-phenyl-1,4-benzoquinone-induced writhing test (PQW); format: in vivo, mice; settings: Mus musculus, sc, read-out: PQW % Inhibition of writhing
[3] = test system: naja naja (snake venom) phospholipase A2 -induced paw edema; experiment: Phospholipase A2-induced Paw Edema (PIPE); format: in vivo, male Wistar rats; settings: 0.1M; rat hindpaw, subplantar injection with PLA2 (3 units/paw), 2 hours
Method: Phospholipase A2 -induced Paw Edema (PIPE)
The ability of compounds to prevent naja naja (snake venom) phospholipase A2 -induced paw edema in male Wistar rats (100-125 g) was measured. PLA2 (3 units/paw) alone or with 0.1M of the test compound was injected in the subplantar region of the rat left hindpaw. Immediately subsequent to the injection and at two hours post administration the paw was immersed in a mercury bath, and paw displacement was measured on a recorder via a transducer. […] See Giessler, A. J. et al., Agents and Actions, Vol. 10, Trends in Inflammation Research (1981), p. 195.

[4] = test system: mouse ear edema induced by topical application of arachidonic acid; experiment: Arachidonic Acid-Induced Ear Edema (AAEE); format: in vivo, Female Swiss Webster mice; settings: for AAEE: 1.0 mg (per ear), mouse
Method: Arachidonic Acid-Induced Ear Edema (AAEE)
The purpose of this assay was to determine the ability of a topically-applied compound to prevent mouse ear edema induced by topical application of arachidonic acid. Female Swiss Webster mice topically received vehicle or test compound (1.0 mg/ear) on both ears (10 μl on outer and inner ears). After 30 minutes, the right ear of all groups received arachidonic acid (4 mg/ear) and the left ear received vehicle alone. After an additional 1 hour, the mice were sacrificed and an ear punch (4 mm) was taken from each ear. The difference in right and left ear punch weights for each animal was determined to assess activity. […] See Young, J. M. et al., Invest. Dermatol., 80, (1983), pp 48-52.

[5] = 10 μg (per ear), mouse, five hours

Compound	PIPE (difference in edema vs. control) [3] [%]	change in vivo at 10 µg/ear [1, 5] [%]	also measured
CC1c2cnccc2N=CN1Cc1ccccc1 (centres unmarked) [3,4-Dihydro-4-methyl-3-phenylmethylpyrido[4,3-d]pyrimidine dihydrochloride]	–	–	change in vivo at 10 µg/ear ([1]; Mus musculus): -55%; inhibition in vivo at 20 mg/kg [2]: 85%
Cl.Cl.Nc1ccncc1CNCc1ccccc1 [3-[(Phenylmethylamino)methyl]-4-pyridinamine dihydrochloride]	-51	–	–
CC(NCc1ccccc1)c1cnccc1N (stereo not drawn) [4-Amino-α-methyl-N-(phenylmethyl)-3-pyridinemethanamine]	–	-45	inhibition in vivo at 20 mg/kg ([2]; 20 mg/kg, s.c.): 58%
C1=NC(C2CCCCC2)c2cnccc2N1.Cl.Cl (centres unmarked) [4-Cyclohexyl-1,4-dihydropyrido[4,3-d]pyrimidine dihydrochloride]	-44	–	–
Nc1ccncc1C(N)c1ccccc1 (centres unmarked) [(4-Amino-3-pyridinyl)benzenemethanamine dihydrochloride]	-66	–	–
Cl.Cl.Nc1ccncc1C(N)C1CCCCC1 (centres unmarked) [(4-Amino-3-pyridinyl)cyclohexylmethanamine dihydrochloride]	-68	-36	AAEE [4]: -28%
Nc1ccncc1C(=O)C1CCCCC1 [(4-Amino-3-pyridinyl)cyclohexylmethanone hydrochloride]	–	-53	–
Nc1ccncc1C(=NO)C1CCCCC1 [(4-Amino-3-pyridinyl)cyclohexylmethanone oxime hydrochloride]	–	-34	–
Nc1ccncc1C(=NO)c1ccccc1 [(4-Amino-3-pyridinyl)phenylmethanone oxime hydrochloride]	–	-32	–
CC(=O)c1cnccc1NC(=O)C(C)(C)C [N-(3-Acetyl-4-pyridinyl)-2,2-dimethylpropanamide]	–	–	inhibition in vivo at 20 mg/kg ([2]; 20 mg/kg, s.c.): 34%
CC(NCc1ccccc1)c1cnccc1NC(=O)C(C)(C)C.Cl.Cl (centres unmarked) [N-[3-[1-(Phenylmethylamino)ethyl]-4-pyridinyl]-2,2-dimethylpropionamide dihydrochloride]	–	–	AAEE [4]: -44%
CCCCNCc1cnccc1NC(=O)C(C)(C)C.Cl.Cl [N-[3-[(Butylamino)methyl]-4-pyridinyl]-2,2-dimethylpropanamide dihydrochloride]	–	–	AAEE [4]: -45%
C[C@]12CCC(=O)C=C1CC[C@@H]1[C@@H]2[C@@H](O)C[C@@]2(C)[C@H]1CC[C@]2(O)C(=O)CO [hydrocortisone, reference compound]	–	–	ED50 ([1]; standard, TPAEE): 47 μg/ear
COc1ccc2c(c1)c(CC(=O)O)c(C)n2C(=O)c1ccc(Cl)cc1 [indomethacin, reference compound]	–	–	ED50 ([4]; standard, AAEE): 1.5 mg/ear
CC(C)(C)C(=O)Nc1ccncc1C(O)C1CCCCC1 (stereo not drawn) [α-Cyclohexyl-α-[4-(2,2-dimethylpropionamido)-3-pyridinyl]-methanol]	-35	-55	AAEE [4]: -52%; inhibition in vivo at 20 mg/kg ([2]; 20 mg/kg, s.c.): 32%
CC(O)c1cnccc1NC(=O)C(C)(C)C (stereo not drawn) [α-Methyl-α-[4-(2,2-dimethylpropionamido)-3-pyridinyl]-methanol]	–	-46	–
